Molecules are shown by their SMILES. Read-outs that look alike come from different tables or passages of the source.

Assay [1] deals with primary human T-cells. The experiment in a line: Proliferation assay after 5 days (CellTiter-Glo, CD3 stimulation; PBS counter screen). It counts as cell-based. The conditions noted are these: Homo sapiens, T-cell, 120 h, CD3 stimulation; for Emax: 5 days, normalized to reference compound A1 as stimulator control = 100%, DMSO neutral control, read-out: Emax proliferation (% activation); for EC50: primary human T-cells, CellTiter-Glo after 5 days, EC50 of fitted sigmoidal curve, read-out: Tcell Proliferation CD3 EC50. In outline: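 After compound addition to medium-only plates, cells are cultured 5 days, equilibrated to room temperature, mixed with an equal volume of CellTiter-Glo 2.0 and rocked 15 min before luminescence is read. Signal reflects ATP content, taken as proportional to cell number.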

Assay [2] has as its system primary human T-cells.

On to `CC(C)Oc1ccc(CN2C(=O)[C@@H](N)CS(=O)(=O)c3cc(F)c(-c4nnc(C(C)(C)C)o4)cc32)nc1` [Example 247, (3R)-3-amino-7-(5-tert-butyl-1,3,4-oxadiazol-2-yl)-8-fluoro-5-[(5-isopropoxy-2-pyridyl)methyl]-1,1-dioxo-2,3-dihydro-1λ^6,5-benzothiazepin-4-one], for which, in the assay on primary human T-cells [1], the Emax is 79% and the EC50 worked out at 761 nM. Besides, the EC50 with primary human T-cells [2] was determined as 320 nM.
In the same order, the values of `N[C@H]1CS(=O)(=O)c2ccc(-c3nnc(N4CC5(CCC5)C4)o3)cc2N(Cc2ccc(Cl)cc2)C1=O` [Example 398, (3R)-3-amino-7-[5-(2-azaspiro[3.3]heptan-2-yl)-1,3,4-oxadiazol-2-yl]-5-[(4-chlorophenyl)methyl]-1,1-dioxo-2,3-dihydro-1λ^6,5-benzothiazepin-4-one] are 115%, 3480 nM and 879 nM.
Turning to `C#CC1(Nc2nnc(-c3cc4c(cc3F)S(=O)(=O)C[C@H](N)C(=O)N4Cc3ccc(Cl)cc3)o2)CCCCC1` [Example 497, (3R)-3-amino-5-[(4-chlorophenyl)methyl]-7-[5-[(1-ethynylcyclohexyl)amino]-1,3,4-oxadiazol-2-yl]-8-fluoro-1,1-dioxo-2,3-dihydro-1λ^6,5-benzothiazepin-4-one], in the assay with primary human T-cells [1], the Emax came to 125% and the EC50 was 874 nM. The EC50 in the assay with primary human T-cells [2] turned out to be 1720 nM.
On to `N[C@H]1CS(=O)(=O)c2cc(F)c(-c3nnc(CC4CCOCC4)o3)cc2N(Cc2ccc(Cl)cc2)C1=O` [Example 78, (3R)-3-Amino-5-[(4-chlorophenyl)methyl]-8-fluoro-1,1-dioxo-7-[5-(tetrahydropyran-4-ylmethyl)-1,3,4-oxadiazol-2-yl]-2,3-dihydro-1λ^6,5-benzothiazepin-4-one], for which the Emax in the assay with primary human T-cells [1] came out at 86%. Further, the EC50 with primary human T-cells [1] was found to be 1110 nM; in the assay on primary human T-cells [2], 2350 nM.
As to `N[C@H]1CS(=O)(=O)c2cc(F)c(-c3nnc(C4CCC4(F)F)o3)cc2N(Cc2ccc(Cl)cc2)C1=O` (stereo partly drawn) [Example 81, (3R)-3-Amino-5-[(4-chlorophenyl)methyl]-7-[5-(2,2-difluorocyclobutyl)-1,3,4-oxadiazol-2-yl]-8-fluoro-1,1-dioxo-2,3-dihydro-1λ^6,5-benzothiazepin-4-one], in the assay with primary human T-cells [1], the Emax turned out to be 185% and the EC50 is 521 nM. This molecule also came in with an EC50 in the assay on primary human T-cells [2] of 1270 nM.
`CC(C)(C)c1nnc(-c2cc3c(cc2F)S(=O)(=O)C[C@H](N)C(=O)N3Cc2ccc(CN)cc2)o1` [Example 226, (3R)-3-amino-5-[[4-(aminomethyl)phenyl]methyl]-7-(5-tert-butyl-1,3,4-oxadiazol-2-yl)-8-fluoro-1,1-dioxo-2,3-dihydro-1λ^6,5-benzothiazepin-4-one]: in the assay on primary human T-cells [1], the Emax was determined as 25% and the EC50 is more than 20000 nM. Also, the EC50 with primary human T-cells [2] is more than 20000 nM.
Turning to `N[C@H]1CS(=O)(=O)c2ccc(-c3nnc(N4CC5(C4)CC(F)(F)C5)o3)cc2N(Cc2ccc(Cl)cc2)C1=O` [Example 402, (3R)-3-amino-5-[(4-chlorophenyl)methyl]-7-[5-(6,6-difluoro-2-azaspiro[3.3]heptan-2-yl)-1,3,4-oxadiazol-2-yl]-1,1-dioxo-2,3-dihydro-1λ^6,5-benzothiazepin-4-one], in the assay with primary human T-cells [1], the Emax stood at 93% and the EC50 turned out to be 928 nM. For the same molecule, in the assay on primary human T-cells [2], the EC50 is 1640 nM.
`CC(C)(C)NC(=O)c1nc(-c2cc3c(cc2F)S(=O)(=O)C[C@H](N)C(=O)N3Cc2ccc(OC(F)(F)F)cc2)no1` [Example 330, 3-[(3R)-3-amino-8-fluoro-1,1,4-trioxo-5-[[4-(trifluoromethoxy)phenyl]methyl]-2,3-dihydro-1λ^6,5-benzothiazepin-7-yl]-N-tert-butyl-1,2,4-oxadiazole-5-carboxamide]: in the assay on primary human T-cells [1], the Emax was 132% and the EC50 is 291 nM. This molecule yielded an EC50 with primary human T-cells [2] of 1830 nM.
For the molecule `CC(=O)N1CCN(c2nnc(-c3cc4c(cc3F)S(=O)(=O)C[C@H](N)C(=O)N4Cc3ccc(Cl)cc3)o2)CC1` [Example 471, (3R)-7-[5-(4-acetylpiperazin-1-yl)-1,3,4-oxadiazol-2-yl]-3-amino-5-[(4-chlorophenyl)methyl]-8-fluoro-1,1-dioxo-2,3-dihydro-1λ^6.5-benzothiazepin-4-one], in the assay with primary human T-cells [1], the Emax was determined as 65% and the EC50 is 8030 nM. In the assay on primary human T-cells [2], this molecule came in with an EC50 of more than 10000 nM.
Consider `N[C@H]1CS(=O)(=O)c2cc(F)c(-c3nnc(N4CCOC5(CC5)C4)o3)cc2N(Cc2ccc(Cl)cc2)C1=O` [Example 472, (3R)-3-amino-5-[(4-chlorophenyl)methyl]-8-fluoro-7-[5-(4-oxa-7-azaspiro[2.5]octan-7-yl)-1,3,4-oxadiazol-2-yl]-1,1-dioxo-2,3-dihydro-1λ^6,5-benzothiazepin-4-one], for which the Emax in the assay with primary human T-cells [1] is 115%. For the same molecule, the EC50 in the assay with primary human T-cells [1] turned out to be 116 nM; with primary human T-cells [2], 109 nM.
Turning to `N[C@H]1CS(=O)(=O)c2cc(F)c(-c3nc4n(n3)CCNC4C(F)(F)F)cc2N(Cc2ccc(OC(F)(F)F)cc2)C1=O` (stereo partly drawn) [Example 288, (3R)-3-amino-8-fluoro-1,1-dioxo-5-[[4-(trifluoromethoxy)phenyl]methyl]-7-[8-(trifluoromethyl)-5,6,7,8-tetrahydro-[1,2,4]triazolo[1,5-a]pyrazin-2-yl]-2,3-dihydro-1λ^6,5-benzothiazepin-4-one], in the assay with primary human T-cells [1], the Emax is 71% and the EC50 was found to be 4310 nM. In the assay with primary human T-cells [2], this molecule registered an EC50 of more than 10000 nM.
For `[2H]C([2H])([2H])C(c1nnc(-c2ccc3c(c2)N(Cc2ccc(Cl)cc2)C(=O)[C@@H](N)CS3(=O)=O)o1)(C([2H])([2H])[2H])C([2H])([2H])[2H]` [Example 380, (3R)-3-amino-5-[(4-chlorophenyl)methyl]-1,1-dioxo-7-[5-[2,2,2-trideuterio-1,1-bis(trideuteriomethyl)ethyl]-1,3,4-oxadiazol-2-yl]-2,3-dihydro-1λ^6,5-benzothiazepin-4-one], in the assay with primary human T-cells [1], the Emax was found to be 132% and the EC50 worked out at 613 nM. Moreover, the EC50 in the assay on primary human T-cells [2] was 819 nM.
In the case of `Cc1cc(C)c(-c2nnc(-c3cc4c(cc3F)S(=O)(=O)C[C@H](N)C(=O)N4Cc3ccc(Cl)cc3)o2)cn1` [Example 130, (3R)-3-amino-5-[(4-chlorophenyl)methyl]-7-[5-(4,6-dimethyl-3-pyridyl)-1,3,4-oxadiazol-2-yl]-8-fluoro-1,1-dioxo-2,3-dihydro-1λ^6,5-benzothiazepin-4-one], in the assay with primary human T-cells [1], the Emax was found to be 114% and the EC50 was 159 nM. The same molecule registered an EC50 in the assay on primary human T-cells [2] of 284 nM.
The matching figures for `CC(C)(C)c1nnc(-c2cc3c(cc2F)S(=O)(=O)C[C@H](N)C(=O)N3Cc2ccc(OCCCCCCCCCCCN)cc2)o1` [Example 257, (3R)-3-amino-5-[[4-(11-aminoundecoxy)phenyl]methyl]-7-(5-tert-butyl-1,3,4-oxadiazol-2-yl)-8-fluoro-1,1-dioxo-2,3-dihydro-1λ^6,5-benzothiazepin-4-one]: 142%, less than 162 nM and more than 20000 nM.
As to `CC(C)(C)c1nnc(-c2ccc3c(c2)N(Cc2ccc(S(=O)(=O)C(F)(F)F)cc2)C(=O)[C@@H](N)CS3(=O)=O)o1` [Example 123, (3R)-3-amino-7-(5-tert-butyl-1,3,4-oxadiazol-2-yl)-1,1-dioxo-5-[[4-(trifluoromethylsulfonyl)phenyl]methyl]-2,3-dihydro-1λ^6,5-benzothiazepin-4-one], in the assay with primary human T-cells [1], the Emax stood at 82% and the EC50 was more than 2730 nM. The EC50 in the assay with primary human T-cells [2] is 1650 nM.
In the same order, the values of `CC(C)(C)c1nnc(-c2ccc3c(c2)N(Cc2ccc(OCC(F)F)cc2)C(=O)[C@@H](N)CS3(=O)=O)o1` [Example 432, (3R)-3-amino-7-(5-tert-butyl-1,3,4-oxadiazol-2-yl)-5-[[4-(2,2-difluoroethoxy)phenyl]methyl]-1,1-dioxo-2,3-dihydro-1λ^6,5-benzothiazepin-4-one] are 103%, 1440 nM and 2700 nM.
With `CCN1CC(c2nnc(-c3cc4c(cc3F)S(=O)(=O)C[C@H](N)C(=O)N4Cc3ccc(Cl)cc3)o2)CC(F)(F)C1` (stereo partly drawn) [Example 150, (3R)-3-amino-5-[(4-chlorophenyl)methyl]-7-[5-(1-ethyl-5,5-difluoro-3-piperidyl)-1,3,4-oxadiazol-2-yl]-8-fluoro-1,1-dioxo-2,3-dihydro-1λ^6,5-benzothiazepin-4-one], in the assay on primary human T-cells [1], the Emax was determined as 128% and the EC50 was found to be 75.7 nM. Further, the EC50 with primary human T-cells [2] is 358 nM.
As for `COC(F)(c1nc(-c2cc3c(cc2F)S(=O)(=O)C[C@H](N)C(=O)N3Cc2ccc(F)cc2)no1)C(F)(F)F` (stereo partly drawn) [Example 513, (3R)-3-amino-8-fluoro-5-[(4-fluorophenyl)methyl]-1,1-dioxo-7-[5-(1,2,2,2-tetrafluoro-1-methoxy-ethyl)-1,2,4-oxadiazol-3-yl]-2,3-dihydro-1λ^6,5-benzothiazepin-4-one], the Emax with primary human T-cells [1] was found to be 157%. Further, the results for the EC50 in the assay with primary human T-cells [1] and with primary human T-cells [2] were 285 nM and 307 nM, respectively.
In the same order, the values of `CN(c1nnc(-c2ccc3c(c2)N(Cc2ccc(Cl)cc2)C(=O)[C@@H](N)CS3(=O)=O)o1)C1CC1` [Example 394, (3R)-3-amino-5-[(4-chlorophenyl)methyl]-7-[5-[cyclopropyl(methyl)amino]-1,3,4-oxadiazol-2-yl]-1,1-dioxo-2,3-dihydro-1λ^6,5-benzothiazepin-4-one] are 98%, 1770 nM and 3090 nM.
On to `COC(F)(c1nnc(-c2ccc3c(c2)N(Cc2ccc(Cl)cc2)C(=O)[C@@H](N)CS3(=O)=O)o1)C(F)(F)F` (stereo partly drawn) [Example 388, (3R)-3-amino-5-[(4-chlorophenyl)methyl]-1,1-dioxo-7-[5-(1,2,2,2-tetrafluoro-1-methoxy-ethyl)-1,3,4-oxadiazol-2-yl]-2,3-dihydro-1λ^6,5-benzothiazepin-4-one], for which, in the assay on primary human T-cells [1], the Emax amounted to 129%. Moreover, the EC50 was determined as 166 nM with primary human T-cells [1] and 331 nM with primary human T-cells [2].
